# Laboratory results from patent US20260125375A1 (Pfizer Inc., priority 2022, published 2026).
# Tests used:
# CBL-B (residues 36-427) = biological target: T1, CBL-B (residues 36-427) (Homo sapiens, UniProt Q13191); test: Ligand Displacement Assay (LDA), HTRF competitive binding against BODIPY-labeled fluorescent tracer, CBL-B; settings: geometric mean of the number of tests, read-out: CBL-B Ki (nM) GMean
# T1 construct: Purified CBL-B (residues 36-427) and C-CBL (residues 46-435) proteins from baculovirus-infected insect cells; made in house; host or cells: baculovirus-infected insect cells
# Method in brief: (§1)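 Ki values, given as geometric means of repeated tests, come from TR-FRET displacement of a BODIPY-labelled tracer from terbium-streptavidin-bound, AviTag-biotinylated protein made in baculovirus-infected insect cells. Compounds ran as three-fold dilutions in duplicate, […], 2% DMSO.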
# C-CBL (residues 46-435) = biological target: T2, C-CBL (residues 46-435) (Homo sapiens, UniProt P22681); test: Ligand Displacement Assay (LDA), HTRF competitive binding against BODIPY-labeled fluorescent tracer, C-CBL; settings: geometric mean of the number of tests, read-out: C-CBL Ki (nM) GMean
# T2 construct: Purified CBL-B (residues 36-427) and C-CBL (residues 46-435) proteins from baculovirus-infected insect cells; made in house; host or cells: baculovirus-infected insect cells
# T2 sequence (P22681 46-435): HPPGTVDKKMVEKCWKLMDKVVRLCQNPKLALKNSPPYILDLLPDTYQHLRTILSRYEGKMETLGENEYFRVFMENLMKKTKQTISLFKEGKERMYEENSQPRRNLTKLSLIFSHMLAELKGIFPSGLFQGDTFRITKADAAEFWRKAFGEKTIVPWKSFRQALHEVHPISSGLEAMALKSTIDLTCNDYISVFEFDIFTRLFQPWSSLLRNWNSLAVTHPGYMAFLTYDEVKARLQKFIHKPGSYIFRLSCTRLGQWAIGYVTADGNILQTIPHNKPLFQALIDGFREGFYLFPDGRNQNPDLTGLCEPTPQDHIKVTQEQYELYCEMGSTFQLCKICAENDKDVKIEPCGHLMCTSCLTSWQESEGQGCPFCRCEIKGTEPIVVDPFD
# Method in brief: as §1
SMILES,Ki (CBL-B (residues 36-427)),Ki (C-CBL (residues 46-435))
"C[C@@H](c1nc(C(F)(F)F)cc2c(-c3cccc(C4(Cc5nncn5C)COC4)c3)n[nH]c12)N1CCC(F)(F)C1 (single isomer, unassigned) [Example D5]",32.7 nM,148 nM
"C[C@H](c1nc(C(F)(F)F)cc2c(-c3cccc(C4(Cc5nncn5C)COC4)c3)n[nH]c12)N1CCC(F)(F)C1 (single isomer, unassigned) [Example D6]",4.6 nM,21 nM
"C[C@@H](c1nc(C(F)(F)F)cc2c(-c3cccc(C4(Cc5nncn5C)COC4)c3)n[nH]c12)N1C[C@H](F)[C@@H](F)C1 (single isomer, unassigned) [Example D7]",7.4 nM,28.1 nM
"C[C@H](c1nc(C(F)(F)F)cc2c(-c3cccc(C4(Cc5nncn5C)COC4)c3)n[nH]c12)N1C[C@H](F)[C@@H](F)C1 (single isomer, unassigned) [Example D8]",25.4 nM,113 nM
"C[C@@H](c1nc(C(F)(F)F)cc2c(-c3cccc(C4(Cc5nncn5C)COC4)c3)n[nH]c12)N1CC[C@@H](F)C1 (single isomer, unassigned) [Example D9]",17.4 nM,71.8 nM
"C[C@H](c1nc(C(F)(F)F)cc2c(-c3cccc(C4(Cc5nncn5C)COC4)c3)n[nH]c12)N1CC[C@@H](F)C1 (single isomer, unassigned) [Example D10]",6.6 nM,25 nM
"C[C@H]1CN([C@@H](C)c2nc(C(F)(F)F)cc3c(-c4cccc(C5(Cc6nncn6C)COC5)c4)n[nH]c23)CCO1 (single isomer, unassigned) [Example D11]",7.4 nM,27.2 nM
"C[C@H](c1nc(C(F)(F)F)cc2c(-c3cccc(C4(Cc5nncn5C)COC4)c3)n[nH]c12)N1CCO[C@@H](C)C1 (single isomer, unassigned) [Example D12]",15.3 nM,52.9 nM
"C[C@@H]1CCCN([C@@H](C)c2nc(C(F)(F)F)cc3c(-c4cccc(C5(Cc6nncn6C)COC5)c4)n[nH]c23)C1 (single isomer, unassigned) [Example D13]",15 nM,53.6 nM
"C[C@@H]1CCCN([C@H](C)c2nc(C(F)(F)F)cc3c(-c4cccc(C5(Cc6nncn6C)COC5)c4)n[nH]c23)C1 (single isomer, unassigned) [Example D14]",42.9 nM,183 nM
"C[C@H](N[C@@H]1CCC[C@@H]1O)c1nc(C(F)(F)F)cc2c(-c3cccc([C@H](c4nncn4C)C4CCC4)c3)n[nH]c12 (single isomer, unassigned) [Example D15]",0.9 nM,1 nM
"C[C@@H](N[C@@H]1CCC[C@@H]1O)c1nc(C(F)(F)F)cc2c(-c3cccc([C@H](c4nncn4C)C4CCC4)c3)n[nH]c12 (single isomer, unassigned) [Example D16]",2.5 nM,24.5 nM
"C[C@H](O)CN[C@@H](C)c1nc(C(F)(F)F)cc2c(-c3cccc([C@H](c4nncn4C)C4CCC4)c3)n[nH]c12 (single isomer, unassigned) [Example D19]",1 nM,12.4 nM
"C[C@@H](N[C@H]1CC[C@@H]1O)c1nc(C(F)(F)F)cc2c(-c3cccc([C@H](c4nncn4C)C4CCC4)c3)n[nH]c12 (single isomer, unassigned) [Example D22]",0.8 nM,5.8 nM
"C[C@H](N[C@@H]1CC[C@@H]1O)c1nc(C(F)(F)F)cc2c(-c3cccc([C@H](c4nncn4C)C4CCC4)c3)n[nH]c12 (single isomer, unassigned) [Example D28]",0.7 nM,0.6 nM
"C[C@H](NC1CC[C@H]1O)c1nc(C(F)(F)F)cc2c(-c3cccc([C@H](c4nncn4C)C4CCC4)c3)n[nH]c12 (single isomer, unassigned) [Example D30]",0.6 nM,5.1 nM
"C[C@H](NC1CC(F)(F)C1)c1nc(C(F)(F)F)cc2c(-c3cccc([C@H](c4nncn4C)C4CCC4)c3)n[nH]c12 (single isomer, unassigned) [Example D90]",8.9 nM,147 nM
